According to US10821069B2, “Aqueous extract of truffle and cosmetic composition thereof” (ISP INVESTMENTS LLC, priority 2014, dated 2020):

Tested on: Normal human keratinocytes
Test: Mitochondrial ROS production after rotenone-induced production of ROS (MITOSOX staining)
Format: cell-based
Conditions: 1 μM Rotenone for 4 hours, no extract
Protocol: The purpose of this study is to determine the influence of the Truffle extract according to example 2 regarding the mitochondrial Reactive oxygen Species (ROS) production. Mitochondrial ROS were induced by rotenone, an electron transport chain complex inhibitor.
Method: Normal human keratinocytes extracted from a […] […] abdominal skin were seeded in 8 well culture PERMANOX® plastic slides (Thermo Scientific, Waltham, Mass., USA). Cells were pre-treated with two applications per day of the Truffle extract of example 2 (at 0.01% and 0.05%) for 48 h in KSFM medium (Gibco, Auckland, NZ) supplemented with 50 μg·ml-1 bovine pituitary extract (Gibco), 5 ng·ml-1 human recombinant EGF (Gibco) and 0.1 mg·ml-1 PRIMOCIN™ (Invivogen, San Diego, Calif., USA). Then cells were submitted to 1 μM Rotenone application for 4 hours. Immediately after the stress, culture medium was replaced with fresh KSFM for 1 hour. At the end of incubation, a 5 μM MITOSOX® (Life Technologies, Carlsbad, Calif., USA) solution was incubated further for 20 min at 37° C. in 5% CO2 atmosphere. […] Digital images were acquired with an inverted Zeiss Axiovert 200M microscope (Zeiss, Oberkochen, Germany) with a 20× objective. […] Statistical significance of the data was assessed by paired Student's t-test (n=3, p<0.05 was considered significant; p<0.01 as very significant and p<0.005 as highly significant).

## C=C(C)[C@H]1Cc2c(ccc3c2O[C@@H]2COc4cc(OC)c(OC)cc4[C@@H]2C3=O)O1 [rotenone]
  increase in ROS production in keratinocytes compared to untreated control: 45%
